Target: Dipeptidyl peptidase 4 (Homo sapiens, UniProt P27487)
Assay: Inhibition of DPP4

Dipeptidyl peptidase 4, sequence (P27487 whole entry): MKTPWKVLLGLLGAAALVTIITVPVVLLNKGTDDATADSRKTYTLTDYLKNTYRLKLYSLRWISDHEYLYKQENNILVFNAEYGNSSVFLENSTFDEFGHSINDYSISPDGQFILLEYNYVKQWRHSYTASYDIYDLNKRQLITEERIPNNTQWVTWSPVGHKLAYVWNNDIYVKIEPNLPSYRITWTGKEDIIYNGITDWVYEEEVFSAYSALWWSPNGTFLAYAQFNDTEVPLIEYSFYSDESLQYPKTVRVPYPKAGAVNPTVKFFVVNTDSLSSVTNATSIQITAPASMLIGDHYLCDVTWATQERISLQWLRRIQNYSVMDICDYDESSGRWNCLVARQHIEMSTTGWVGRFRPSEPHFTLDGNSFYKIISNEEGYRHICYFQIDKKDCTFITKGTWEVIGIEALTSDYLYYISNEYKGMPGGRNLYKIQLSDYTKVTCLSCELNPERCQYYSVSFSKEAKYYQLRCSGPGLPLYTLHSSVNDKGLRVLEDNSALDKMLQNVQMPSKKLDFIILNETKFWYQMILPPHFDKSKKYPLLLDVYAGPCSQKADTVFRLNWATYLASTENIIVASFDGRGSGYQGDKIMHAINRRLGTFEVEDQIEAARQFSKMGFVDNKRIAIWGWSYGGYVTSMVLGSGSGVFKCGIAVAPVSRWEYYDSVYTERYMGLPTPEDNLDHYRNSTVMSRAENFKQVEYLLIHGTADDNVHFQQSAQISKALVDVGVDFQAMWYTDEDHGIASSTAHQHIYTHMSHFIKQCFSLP

| IC50 | Structure (SMILES) |
| --- | --- |
| 2210 nM | C=COCC(=O)N1CCN(C(=O)C[C@H](N)Cc2ccccc2F)CC1 |
| 310 nM | O=C([C@@H]1Cc2ccc(-c3cccc(-c4nnn[nH]4)c3)cc2CN1)N1CC[C@H](F)C1 |
| 1400 nM | N[C@@H](CC(=O)N1CCn2cc(C(F)(F)F)nc2C1c1ccc(F)cc1)Cc1ccc(F)c(F)c1 (stereo partly specified) |
| 864 nM | COc1cc(CNC(=O)[C@@H]2CCCN2C(=O)C[C@H](N)Cc2ccccc2F)ccc1O |
| 731 nM | N[C@@H](CC(=O)N1CCC[C@H]1C(=O)NCc1ccc(C(F)(F)F)cc1)Cc1ccccc1F |
| 1250 nM | N[C@@H](CC(=O)N1CCN(c2ccc(Cl)cc2)CC1)Cc1ccccc1F |
| 780 nM | CSc1cc(F)c(C[C@@H](N)CC(=O)N2CCn3c(nnc3C(F)(F)F)C2)cc1F |
| 2000 nM | C=CCC(C(=O)N1CCn2c(nnc2C(F)(F)F)C1)[C@H](N)Cc1cc(F)c(F)cc1F (stereo partly specified) |
| 1320 nM | N[C@@H](CC(=O)N1CCn2nccc21)Cc1cc(F)ccc1F |
| 8 nM | CC(C)[C@H](Oc1ccc(CNC(=O)[C@@H]2CCCN2C(=O)C[C@H](N)Cc2cc(F)c(F)c(F)c2F)cc1)C(=O)O |
| 995 nM | N[C@H](C(=O)N1CCC(F)(F)C1)[C@@H]1CCN(S(=O)(=O)c2ccc(OC(F)(F)F)cc2)C1 |

— ChEMBL document CHEMBL1144633, “Affinity-based ranking of ligands for DPP-4 from mixtures” (Bioorg Med Chem Lett, 2007)
